Measured values as given in article PMC7655571, “Acetylcholinesterase inhibition in electric eel and human donor blood: an in vitro approach to investigate interspecies differences and human variability in toxicodynamics” (Archives of Toxicology, 2020).
Several values for one entry are separate records, joined by “and”; a condition that tells them apart may be missing. Equal entries are not always repeated. Entries after “also recorded” stand apart in the source; their conditions may differ. Where two headings read alike, the source gives them in different places.

How the values were obtained:
[1] = target: T1, Electrophorus electricus AChE (Electrophorus electricus, UniProt O42275); test: AChE inhibition, electric eel enzyme (Ellman method); assay type: biochemical; conditions: for AChE inhibition (in words), electric eel: concentration–response curves
T1 construct: purchased Sigma-Aldrich C2888
Procedure: (§1) A 1.3 mM DTNB buffer and a 6 mM acetylthiocholine buffer were prepared in the 50 mM sodium phosphate buffer, a 3 mM ethopropazine buffer was prepared in sterile water and all were stored in aliquots at − 20 °C. A 600 µM ethopropazine buffer was prepared just before use in sodium phosphate buffer.
(§2) Stock solutions were diluted in methanol to create a dosing series and also stored at − 20 °C. These series were 100× diluted in sodium phosphate buffer to get 1% methanol solutions, resulting in a final concentration of 0.1% methanol in the wells.
AChE from Electrophorus electricus (electric eel) and freshly drawn (maximum one-day-old), venous EDTA whole blood samples from healthy human donors were used. […] Following incubation for 30 min at room temperature, electric eel AChE was used directly in the enzyme activity assay (see “Enzyme activity assay”). For human blood AChE, 50 µL of the blood was added to a new 48-wells plate and 950 µL Triton buffer was added to these wells (20× dilution).
Briefly, 20 µL of electric eel AChE or 20 µL of Triton-diluted blood (either exposed or unexposed) and 20 µL ethopropazine were added to 460 µL of DTNB buffer in a 48-wells plate. […] Blank wells contained only DTNB buffer and unexposed enzyme/blood to correct for any background absorbance. To these wells, 100 µL sodium phosphate buffer was added instead of acetylthiocholine after incubation. The final concentration of electric eel AChE was 4 mU/well.
All in vitro data were analysed in GraphPad Prism (version 8.4) and are expressed as mean ± standard deviation (SD). For data analysis, vehicle control (0.1% methanol) was set at 100% for both human and electric eel AChE. For human blood, the technical replicates were averaged to perform statistical tests. […] The electric eel AChE data consisted of 3 technical replicates per experiment and 3–4 independent biological replicates.

electric eel AChE = conditions: cited from earlier work
human blood AChE = target: T2, human blood AChE (Homo sapiens, UniProt P22303); test: AChE inhibition in human donor whole blood (Ellman method); assay type: biochemical; conditions: for AChE inhibition (in words), human blood: concentration–response curves; for Coefficient of variation (CV) C1 Human: concentration level C1 (Table S2); for Coefficient of variation (CV) C2 Human: concentration level C2 (Table S2); for Coefficient of variation (CV) C3 Human: concentration level C3 (Table S2); for Coefficient of variation (CV) C4 Human: concentration level C4 (Table S2); for Human uncertainty factor (UF) UF97.5: interindividual differences, concentration closest to the IC20, 95% CI in brackets
T2 construct: 90 µL undiluted blood in a 48-wells plate; from tissue; host or cells: venous EDTA whole blood from healthy human donors, lysed and diluted in Triton X-100 buffer
Procedure: as §1, §2
AChE from Electrophorus electricus (electric eel) and freshly drawn (maximum one-day-old), venous EDTA whole blood samples from healthy human donors were used. […] For human blood AChE, 50 µL of the blood was added to a new 48-wells plate and 950 µL Triton buffer was added to these wells (20× dilution).
Briefly, 20 µL of electric eel AChE or 20 µL of Triton-diluted blood (either exposed or unexposed) and 20 µL ethopropazine were added to 460 µL of DTNB buffer in a 48-wells plate. […] Blank wells contained only DTNB buffer and unexposed enzyme/blood to correct for any background absorbance. To these wells, 100 µL sodium phosphate buffer was added instead of acetylthiocholine after incubation.
Unexposed, diluted blood (100 µL) was added to a 96-wells plate and 100 µL transformation agent (20 mg potassium ferricyanide, 5 mg potassium cyanide, 100 mg sodium bicarbonate and 50 µL Triton X-100 in 100 mL water) was added. […] Blank wells contained transformation reagent and buffer to correct for any background absorbance.
All in vitro data were analysed in GraphPad Prism (version 8.4) and are expressed as mean ± standard deviation (SD). For data analysis, vehicle control (0.1% methanol) was set at 100% for both human and electric eel AChE. For human blood, the technical replicates were averaged to perform statistical tests. Unpaired t tests were used to test for differences between men and women and a one-way ANOVA followed by a post-hoc Tukey test was used to compare data between different age groups (group 1: ≥ 60 years; group 2: 31–60 years; group 3: ≤ 30 years).

human AChE (blood) = conditions: source: blood; ref Das et al. ([2006]); cited from earlier work
[2] = test system: human AChE (red blood cells); conditions: source: red blood cells; ref Ajilore et al. [2018]; cited from earlier work
[3] = measured or estimated in plasma following human exposure, cited from earlier work
[4] = test system: human AChE (recombinant enzyme); conditions: source: recombinant enzyme; ref Li et al. ([2019]); cited from earlier work
[5] = IC50 Human, whole blood, average of 20 donors
[6] = 30 min exposure, room temperature
[7] = human variability in AChE inhibition
[8] = whole blood, average of 20 donors, read-out: IC20 Human

T1 sequence (O42275 24-633): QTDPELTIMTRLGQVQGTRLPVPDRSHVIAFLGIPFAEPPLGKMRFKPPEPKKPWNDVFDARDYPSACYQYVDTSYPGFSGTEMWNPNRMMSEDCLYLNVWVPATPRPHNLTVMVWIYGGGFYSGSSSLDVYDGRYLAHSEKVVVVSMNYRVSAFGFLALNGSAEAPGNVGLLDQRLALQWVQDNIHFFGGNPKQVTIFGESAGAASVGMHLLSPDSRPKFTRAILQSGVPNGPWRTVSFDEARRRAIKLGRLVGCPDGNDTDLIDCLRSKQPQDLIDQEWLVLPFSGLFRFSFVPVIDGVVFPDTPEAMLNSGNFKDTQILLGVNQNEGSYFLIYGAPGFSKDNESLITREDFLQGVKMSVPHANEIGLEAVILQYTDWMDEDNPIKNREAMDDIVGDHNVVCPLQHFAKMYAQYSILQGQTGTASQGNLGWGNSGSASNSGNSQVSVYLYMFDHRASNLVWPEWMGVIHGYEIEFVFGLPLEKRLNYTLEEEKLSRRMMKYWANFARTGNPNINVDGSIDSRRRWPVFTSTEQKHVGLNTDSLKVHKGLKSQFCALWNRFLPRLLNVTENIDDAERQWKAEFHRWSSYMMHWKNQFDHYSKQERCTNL
T2 sequence (P22303 32-617 isoform P22303-2 limits assumed): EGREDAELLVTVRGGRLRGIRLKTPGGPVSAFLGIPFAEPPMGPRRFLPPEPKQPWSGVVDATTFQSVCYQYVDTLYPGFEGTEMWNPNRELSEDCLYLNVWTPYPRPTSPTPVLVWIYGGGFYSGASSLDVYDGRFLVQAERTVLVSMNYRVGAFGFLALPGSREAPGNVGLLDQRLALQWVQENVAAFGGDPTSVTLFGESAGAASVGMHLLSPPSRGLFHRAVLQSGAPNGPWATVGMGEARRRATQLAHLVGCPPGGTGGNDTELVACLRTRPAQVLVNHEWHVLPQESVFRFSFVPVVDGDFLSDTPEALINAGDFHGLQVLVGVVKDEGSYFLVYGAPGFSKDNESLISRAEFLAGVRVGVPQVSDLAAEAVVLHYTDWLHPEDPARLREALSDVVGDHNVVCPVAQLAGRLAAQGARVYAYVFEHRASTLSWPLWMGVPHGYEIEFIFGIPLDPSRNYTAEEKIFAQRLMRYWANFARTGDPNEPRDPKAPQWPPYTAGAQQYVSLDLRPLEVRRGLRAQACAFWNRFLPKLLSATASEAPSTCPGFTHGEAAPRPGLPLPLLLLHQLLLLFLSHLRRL

Structure (SMILES): CCOP(=S)(OCC)Oc1nc(Cl)c(Cl)cc1Cl [CPF, Chlorpyrifos]
- IC50 [1]: > 0.35 µM
- AChE inhibition (in words), electric eel [1]: do not show any AChE inhibition; also recorded: did not inhibit AChE
- AChE inhibition (in words), electric eel ([1]; listed as chlorpyrifos): did not show inhibition
- IC50 (electric eel AChE; ref Assis et al. ([2012])): 0.03 µM
- IC50 (electric eel AChE; ref Čolović et al. ([2011])): 4.5 µM
- IC50 (human blood AChE; [5]): > 10 µM
- AChE inhibition (in words), human blood (human blood AChE): do not inhibit AChE activity; also recorded: do not show any AChE inhibition; also recorded: did not inhibit AChE
- AChE inhibition (in words), human blood (human blood AChE; listed as chlorpyrifos): did not show inhibition
- IC50 (human AChE (blood)): 0.12 µM
- IC50 [2]: 200 µM
- In vivo concentration ([3]; ref Buratti et al. ([2003])): ≤ 10 µM
- In vivo concentration ([3]; ref Eyer et al. ([2009])): ≤ 5 µM
- In vivo concentration ([3]; ref Huen et al. ([2012])): ≤ 5 µM

Structure (SMILES): CCOP(=O)(OCC)Oc1nc(Cl)c(Cl)cc1Cl [CPO, Chlorpyrifos-oxon]
- IC20 [1, 6]: 0.01 µM
- AChE inhibition (in words), electric eel [1]: show inhibition of AChE
- IC50 (electric eel AChE; ref Jett et al. ([1999])): 0.01 µM
- IC50 (electric eel AChE; ref Meijer et al. ([2014])): 0.01 µM
- IC50 (electric eel AChE; ref Čolović et al. ([2011])): 0.03 µM
- AChE inhibition (in words), human blood (human blood AChE): show inhibition of AChE
- IC20 (human blood AChE; donor 3, read-out: IC20 Value): 0.1 µM
- IC20 (human blood AChE; donor 4, read-out: IC20 Value): 0.1 µM
- IC20 (human blood AChE; donor 5, read-out: IC20 Value): 0.1 µM
- IC20 (human blood AChE; donor 8, read-out: IC20 Value): 0.1 µM
- IC20 (human blood AChE; donor 11, read-out: IC20 Value): 0.1 µM
- IC20 (human blood AChE; donor 15, read-out: IC20 Value): 0.1 µM
- IC20 (human blood AChE; donor 17, read-out: IC20 Value): 0.1 µM
- concentration at which AChE activity is inhibited completely (human blood AChE; human donor blood): ≥ 2.9 µM
- Coefficient of variation (CV) C1 Human (human blood AChE; [7]): 5.5%
- Coefficient of variation (CV) C2 Human (human blood AChE; [7]): 6.0%
- Coefficient of variation (CV) C3 Human (human blood AChE; [7]): 12%
- Coefficient of variation (CV) C4 Human (human blood AChE; [7]): 99%
- Human uncertainty factor (UF) UF97.5 (human blood AChE): 2.2 and 2.2 [1.9–2.7]
- IC20 (human blood AChE; [8]): 0.17 µM
- In vivo concentration ([3]; ref Eyer et al. ([2009])): ≤ 0.06 µM
- In vivo concentration ([3]; ref Heilmair et al. ([2008])): ≤ 0.02 µM

Structure (SMILES): COP(=S)(OC)SCN1C(=O)c2ccccc2C1=O [PM, phosmet]
- IC50 [1]: > 1.4 µM
- AChE inhibition (in words), electric eel [1]: do not show any AChE inhibition; also recorded: did not inhibit AChE
- AChE inhibition (in words), electric eel ([1]; listed as phosmet): did not show inhibition
- IC50 (human blood AChE; [5]): > 30 µM
- AChE inhibition (in words), human blood (human blood AChE): do not inhibit AChE activity; also recorded: do not show any AChE inhibition; also recorded: did not inhibit AChE
- AChE inhibition (in words), human blood (human blood AChE; listed as phosmet): did not show inhibition
- IC50 Value Human [4]: Inactive
- In vivo concentration ([3]; ref Santori et al. ([2020])): ≤ 50 µM

Structure (SMILES): CCOP(=O)(OCC)Oc1cc(C)nc(C(C)C)n1 [DZO, diazinon-oxon]
- IC20 [1, 6]: 0.41 µM
- IC50 ([1]; 30 min exposure, room temperature, 3–4 independent experiments, read-out: IC50 Electric eel): 1.03 µM
- AChE inhibition (in words), electric eel [1]: show inhibition of AChE
- IC50 (electric eel AChE; ref Čolović et al. ([2011])): 0.05 µM
- AChE inhibition (in words), human blood (human blood AChE): show inhibition of AChE
- IC20 (human blood AChE; donor 1, read-out: IC20 Value): 0.5 µM
- IC50 (human blood AChE; donor 1, read-out: IC50 Value): 1.5 µM
- IC20 (human blood AChE; donor 2, read-out: IC20 Value): 0.7 µM
- IC50 (human blood AChE; donor 2, read-out: IC50 Value): 1.7 µM
- IC20 (human blood AChE; donor 3, read-out: IC20 Value): 1 µM
- IC50 (human blood AChE; donor 3, read-out: IC50 Value): 2.3 µM
- IC20 (human blood AChE; donor 4, read-out: IC20 Value): 0.4 µM
- IC50 (human blood AChE; donor 4, read-out: IC50 Value): 1.5 µM
- IC20 (human blood AChE; donor 5, read-out: IC20 Value): 0.7 µM
- IC50 (human blood AChE; donor 5, read-out: IC50 Value): 1.6 µM
- IC20 (human blood AChE; donor 6, read-out: IC20 Value): 1.4 µM
- IC50 (human blood AChE; donor 6, read-out: IC50 Value): 2.6 µM
- IC20 (human blood AChE; donor 7, read-out: IC20 Value): 1.2 µM
- IC50 (human blood AChE; donor 7, read-out: IC50 Value): 2.4 µM
- IC20 (human blood AChE; donor 8, read-out: IC20 Value): 1.2 µM
- IC50 (human blood AChE; donor 8, read-out: IC50 Value): 2.2 µM
- IC20 (human blood AChE; donor 9, read-out: IC20 Value): 1.1 µM
- IC50 (human blood AChE; donor 9, read-out: IC50 Value): 2.1 µM
- IC20 (human blood AChE; donor 10, read-out: IC20 Value): 1.9 µM
- IC50 (human blood AChE; donor 10, read-out: IC50 Value): 4.5 µM
- IC20 (human blood AChE; donor 11, read-out: IC20 Value): 1.7 µM
- IC50 (human blood AChE; donor 11, read-out: IC50 Value): 2.9 µM
- IC20 (human blood AChE; donor 12, read-out: IC20 Value): 1.9 µM
- IC50 (human blood AChE; donor 12, read-out: IC50 Value): 3.7 µM
- IC20 (human blood AChE; donor 13, read-out: IC20 Value): 1.1 µM
- IC20 (human blood AChE; donor 14, read-out: IC20 Value): 1.3 µM
- IC50 (human blood AChE; donor 14, read-out: IC50 Value): 2.8 µM
- IC20 (human blood AChE; donor 15, read-out: IC20 Value): 0.9 µM
- IC50 (human blood AChE; donor 15, read-out: IC50 Value): 1.9 µM
- IC20 (human blood AChE; donor 16, read-out: IC20 Value): 1.3 µM
- IC50 (human blood AChE; donor 16, read-out: IC50 Value): 3 µM
- IC20 (human blood AChE; donor 17, read-out: IC20 Value): 0.9 µM
- IC50 (human blood AChE; donor 17, read-out: IC50 Value): 2.2 µM
- IC20 (human blood AChE; donor 18, read-out: IC20 Value): 1.4 µM
- IC50 (human blood AChE; donor 18, read-out: IC50 Value): 2.9 µM
- IC20 (human blood AChE; donor 19, read-out: IC20 Value): 1.9 µM
- IC50 (human blood AChE; donor 19, read-out: IC50 Value): 3.4 µM
- IC20 (human blood AChE; donor 20, read-out: IC20 Value): 1.3 µM
- IC50 (human blood AChE; donor 20, read-out: IC50 Value): 2.7 µM
- Coefficient of variation (CV) C1 Human (human blood AChE; [7]): 5.9%
- Coefficient of variation (CV) C2 Human (human blood AChE; [7]): 5.7%
- Coefficient of variation (CV) C3 Human (human blood AChE; [7]): 6.8%
- Coefficient of variation (CV) C4 Human (human blood AChE; [7]): 6.1%
- Coefficient of variation (CV) C5 Human (human blood AChE; human variability in AChE inhibition, concentration level C5 (Table S2)): 8.5%
- Coefficient of variation (CV) C6 Human (human blood AChE; human variability in AChE inhibition, highest concentration C6 (Table S2)): 25%
- Human uncertainty factor (UF) UF97.5 (human blood AChE): 1.4 [1.2–1.6]
- IC20 (human blood AChE; [8]): 1.2 µM
- IC50 (human blood AChE; whole blood, average of 20 donors, read-out: IC50 Human): 2.5 µM
- IC50 [4]: 1.3 µM
